Assays:
barnyardgrass [1] = experiment: Test C preemergence; assay type: in vivo, Echinochloa crusgalli; details: 0 to 100 scale (0 no effect, 100 complete control)
How it was run: (§1)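 Test material, in non-phytotoxic solvent with surfactant, was sprayed on the soil directly after seeding (preemergence) or on young plants of 2–10 cm with one to two leaves (postemergence). Greenhouse, 10 days; 0–100 visual control scale.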

blackgrass [2] = experiment: Test C preemergence; assay type: in vivo, Alopecurus myosuroides; details: 0 to 100 scale (0 no effect, 100 complete control)
How it was run: as §1

corn [3] = experiment: Test C preemergence; assay type: in vivo, Zea mays; details: preemergence, 0 to 100 scale (0 no effect, 100 complete control)
How it was run: as §1

green foxtail [4] = experiment: Test C preemergence; assay type: in vivo, Setaria viridis; details: preemergence, 0 to 100 scale (0 no effect, 100 complete control)
How it was run: as §1

kochia [5] = experiment: Test C preemergence; assay type: in vivo, Bassia scoparia; details: preemergence, 0 to 100 scale (0 no effect, 100 complete control)
How it was run: as §1

oat, wild [6] = experiment: Test C preemergence; assay type: in vivo, Avena fatua; details: preemergence, 0 to 100 scale (0 no effect, 100 complete control)
How it was run: as §1

pigweed, palmer [7] = experiment: Test C preemergence; assay type: in vivo, Amaranthus palmeri; details: preemergence, 0 to 100 scale (0 no effect, 100 complete control)
How it was run: as §1

ragweed [8] = experiment: Test C preemergence; assay type: in vivo, Ambrosia artemisiifolia; details: preemergence, 0 to 100 scale (0 no effect, 100 complete control)
How it was run: as §1

ryegrass, Italian [9] = experiment: Test C preemergence; assay type: in vivo, Lolium multiflorum; details: preemergence, 0 to 100 scale (0 no effect, 100 complete control)
How it was run: as §1

soybean [10] = experiment: Test C preemergence; assay type: in vivo, Glycine max; details: preemergence, 0 to 100 scale (0 no effect, 100 complete control)
How it was run: as §1

wheat [11] = experiment: Test C preemergence; assay type: in vivo, Triticum aestivum; details: preemergence, 0 to 100 scale (0 no effect, 100 complete control)
How it was run: as §1

barnyardgrass [12] = experiment: Test C postemergence; assay type: in vivo, Echinochloa crusgalli; details: 10 days
How it was run: as §1

blackgrass [13] = experiment: Test C postemergence; assay type: in vivo, Alopecurus myosuroides; details: 10 days
How it was run: as §1

corn [14] = experiment: Test C postemergence; assay type: in vivo, Zea mays; details: 10 days
How it was run: as §1

green foxtail [15] = experiment: Test C postemergence; assay type: in vivo, Setaria viridis; details: 10 days
How it was run: as §1

kochia [16] = experiment: Test C postemergence; assay type: in vivo, Bassia scoparia; details: 125 g ai/ha, postemergence, 10 days; 0 to 100 scale, 0 no effect, 100 complete control
How it was run: as §1

oat, wild [17] = experiment: Test C postemergence; assay type: in vivo, Avena fatua; details: 125 g ai/ha, postemergence, 10 days; 0 to 100 scale, 0 no effect, 100 complete control
How it was run: as §1

pigweed, palmer [18] = experiment: Test C postemergence; assay type: in vivo, Amaranthus palmeri; details: 125 g ai/ha, postemergence, 10 days; 0 to 100 scale, 0 no effect, 100 complete control
How it was run: as §1

ragweed [19] = experiment: Test C postemergence; assay type: in vivo, Ambrosia artemisiifolia; details: 125 g ai/ha, postemergence, 10 days; 0 to 100 scale, 0 no effect, 100 complete control
How it was run: as §1

ryegrass, Italian [20] = experiment: Test C postemergence; assay type: in vivo, Lolium multiflorum; details: 125 g ai/ha, postemergence, 10 days; 0 to 100 scale, 0 no effect, 100 complete control
How it was run: as §1

soybean [21] = experiment: Test C postemergence; assay type: in vivo, Glycine max; details: 125 g ai/ha, postemergence, 10 days; 0 to 100 scale, 0 no effect, 100 complete control
How it was run: as §1

wheat [22] = experiment: Test C postemergence; assay type: in vivo, Triticum aestivum; details: 125 g ai/ha, postemergence, 10 days; 0 to 100 scale, 0 no effect, 100 complete control
How it was run: as §1

galium = experiment: Test C postemergence; assay type: in vivo, Galium aparine; details: 10 days
How it was run: as §1

horseweed = experiment: Test C postemergence; assay type: in vivo, Erigeron canadensis; details: 10 days
How it was run: as §1

barnyardgrass [23] = experiment: Test D flooded paddy test; assay type: in vivo, Echinochloa crus-galli; details: 250 g ai/ha, applied to paddy water, visual rating after 13 to 14 days, scale 0 to 100 (0 no effect, 100 complete control)
How it was run: (§2)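 Rating scale 0–100 (0 no effect, 100 complete control), visual, versus controls. Readout at 13–14 days after in-water application to 2-leaf plants in pots flooded 3 cm deep.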

ducksalad = experiment: Test D flooded paddy test; assay type: in vivo, Heteranthera limosa; details: 250 g ai/ha, applied to paddy water, visual rating after 13 to 14 days, scale 0 to 100 (0 no effect, 100 complete control)
How it was run: as §2

rice = experiment: Test D flooded paddy test; assay type: in vivo, Oryza sativa; details: 250 g ai/ha, applied to paddy water, visual rating after 13 to 14 days, scale 0 to 100 (0 no effect, 100 complete control)
How it was run: as §2

sedge, umbrella = experiment: Test D flooded paddy test; assay type: in vivo, Cyperus difformis; details: 250 g ai/ha, applied to paddy water, visual rating after 13 to 14 days, scale 0 to 100 (0 no effect, 100 complete control)
How it was run: as §2

[24] = Preemergence, 500 g ai/ha, visual rating after 10 days
[25] = Test C, preemergence, 125 g ai/ha
[26] = 125 g ai/ha, postemergence, 0 to 100 scale, 0 no effect, 100 complete control
[27] = Postemergence, 500 g ai/ha, visual 0 to 100 scale (0 no effect, 100 complete control)

## Cc1ccc(-n2cnc(C3(C)COC3)n2)cc1C(=O)N1C[C@H](C)Oc2c(Cl)cccc21 [Compound 275]
Barnyardgrass [1]; [24]
  Plant response rating, Barnyardgrass: 100
Barnyardgrass [1]; [25]
  Barnyardgrass plant response rating: 100
Blackgrass [2]; [24]
  Plant response rating, Blackgrass: 90
Blackgrass [2]; [25]
  Blackgrass plant response rating: 50
Corn [3]; 500 g ai/ha
  Corn plant response rating: 60
Corn [3]; Test C, 125 g ai/ha
  Corn plant response rating: 30
Green foxtail [4]; 500 g ai/ha
  Foxtail, Green plant response rating: 100
Green foxtail [4]; Test C, 125 g ai/ha
  Foxtail, Green plant response rating: 100
Kochia [5]; 500 g ai/ha
  Kochia plant response rating: 100
Kochia [5]; Test C, 125 g ai/ha
  Kochia plant response rating: 80
oat, wild [6]; 500 g ai/ha
  Oat, Wild plant response rating: 90
oat, wild [6]; Test C, 125 g ai/ha
  Oat, Wild plant response rating: 50
pigweed, palmer [7]; 500 g ai/ha
  Pigweed, Palmer plant response rating: 100
pigweed, palmer [7]; Test C, 125 g ai/ha
  Pigweed, Palmer plant response rating: 100
Ragweed [8]; 500 g ai/ha
  Ragweed plant response rating: 80
Ragweed [8]; Test C, 125 g ai/ha
  Ragweed plant response rating: 60
ryegrass, Italian [9]; 500 g ai/ha
  Ryegrass, Italian plant response rating: 100
ryegrass, Italian [9]; Test C, 125 g ai/ha
  Ryegrass, Italian plant response rating: 80
Soybean [10]; 500 g ai/ha
  Soybean plant response rating: 100
Soybean [10]; Test C, 125 g ai/ha
  Soybean plant response rating: 80
Wheat [11]; 500 g ai/ha
  Wheat plant response rating: 70
Wheat [11]; Test C, 125 g ai/ha
  Wheat plant response rating: 30
Barnyardgrass [12]; [26]
  Plant response rating, Barnyardgrass: 50
Barnyardgrass [12]; [27]
  Plant response rating, Barnyardgrass: 90
Blackgrass [13]; [26]
  Plant response rating, Blackgrass: 80
Blackgrass [13]; [27]
  Plant response rating, Blackgrass: 90
Corn [14]; [26]
  Plant response rating, Corn: 10
Corn [14]; [27]
  Plant response rating, Corn: 90
Green foxtail [15]; [26]
  Plant response rating, Foxtail, Green: 70
Green foxtail [15]; [27]
  Plant response rating, Foxtail, Green: 90
Kochia [16]
  Plant response rating, Kochia: 80
oat, wild [17]
  Plant response rating, Oat, Wild: 60
pigweed, palmer [18]
  Plant response rating, Pigweed, Palmer: 80
Ragweed [19]
  Plant response rating, Ragweed: 80
ryegrass, Italian [20]
  Plant response rating, Ryegrass, Italian: 90
Soybean [21]
  Plant response rating, Soybean: 100
Wheat [22]
  Plant response rating, Wheat: 40
galium; [26]
  Plant response rating, Galium: 100
galium; [27]
  Plant response rating, Galium: 100
horseweed; [26]
  Plant response rating, Horseweed: 60
horseweed; [27]
  Plant response rating, Horseweed: 90
Barnyardgrass [23]
  Plant response rating, Barnyardgrass (Flood): 35
ducksalad
  Plant response rating, Ducksalad (Flood): 85
rice
  Plant response rating, Rice (Flood): 10
sedge, umbrella
  Plant response rating, Sedge, Umbrella (Flood): 95

— US20260262643A1, “HERBICIDAL BENZOXAZINES” (FMC CORPORATION, priority 2022, published 2026)
